According to patent publication US20060030497A1, “Conveyor track or container lubricant compositions” (priority 2004, published 2006):

Assay: Spreading test: drop on a polybutene surface in a Petri dish, compared with water
Type: physicochemical
Conditions: water containing 0.1% by weight of spreading agent; drop of 50μ on polybutene; pure water about 10 mm
From the text: Compositions of the present invention have the advantage that they spread more efficiently and completely on polymeric conveyor surfaces than previously known conveyor lubricant compositions containing polydimethylsiloxane. […] When the lubricant is applied to a polymeric conveyor surface, the conveyor surface soon becomes very hydrophobic due to the adsorption and/or absorption of the silicone oil lubricant on the surface. The lubricant persists on the surface so that it presents a very hydrophobic surface to subsequently applied lubricant. The lubricants of the present invention readily wet the oil soaked silicone lubricant surface as evidenced by the lubricants rapidly spreading on the surface without beading. […]
A useful test to determine the spreading ratios of the lubricants of the present invention is to compare spreading on a standard polybutene surface in a Petri dish. In this test, a drop of 50μ of the composition to be measured is applied to a polybutene surface in a Petri dish and after 30 seconds the linear movement of the liquid is measured by taking the average diameter of the substantially circular liquid. Pure water has been measured to have a diameter of about 10 mm. […]
The compositions prepared above were diluted at a ratio of 1 part lubricant to 200 parts water. […] The spreading ratio of the lubricant was measured using the test as described above. […]

heptamethyl trisiloxane with a hydroxy terminated polyethyleneoxide pendant group [Silwet® L-7608]
movement of the drop (average diameter of the liquid) after 30 seconds: 110 mm
